# Assay results: patent publication US12584113B2, “Method of cell culture” (Pfizer Inc., priority 2014, dated 2026)
# System: GS-CHO cells
# Test: Spike-in of single purified metabolites into Medium A, growth of GS-CHO cells monitored 5 or 6 days
# Assay type: cell-based, Chinese hamster
# Method: GS-CHO cells producing a recombinant antibody were inoculated at low viable cell densities (0.1E6 cells/mL) in various conditions in 5 ml volume, 6-well plate cultures. […] The pH of the Medium A, spiked-in with any one of the nine metabolites or any combination of the nine metabolites, was adjusted to 7 before inoculating the cells (on day 0).
# For indolelactate, the stock solution (500 mM) was prepared in DMSO. […] All the conditions were run in duplicates or triplicates. Growth of the cells in above described conditions was monitored for 5 or 6 days.
# [1] = metabolite alone at concentrations higher than 0.5 mM or 1 mM
molecule,measurement,setting,value
CCC(O)C(=O)O (stereo not shown) [2-hydroxybutyric acid],effect on growth of cells,[1],Modest inhibition of growth
O=C(O)C(O)Cc1ccc(O)cc1 (stereo not shown) [3-(4-hydroxyphenyl)lactate],effect on growth of cells,[1],Modest inhibition of growth
O=CO [Formate],effect on growth of cells,metabolite alone at concentrations 2 mM and beyond,negative effect on growth
N[C@@H](CCS)C(=O)O [Homocysteine],effect on growth of cells,[1],Modest inhibition of growth
O=C(O)c1c[nH]c2ccccc12 [Indolecarboxylic acid],effect on growth of cells,metabolite alone at concentrations of 1 mM or lower,potent negative effect on growth of cells
O=C(O)C(O)Cc1c[nH]c2ccccc12 (stereo not shown) [Indolelactate],effect on growth of cells,"metabolite alone at concentrations of 3 mM or below, DMSO control included",little or no effect on growth of cells
Phenyllactate [Phenyllactate (PLA)],effect on growth of cells,metabolite alone at 1 mM concentration,mild effect on growth of cells
